Assay results as given in article PMC11990670, “Exploring the Volatility, Phase Transitions, and Solubility Properties of Five Halogenated Benzaldehydes” (Molecules, 2025).
≈ marks a conversion by molar mass, not a printed value. Marks after values point to notes of the source that are not given here.

Legend:
[1] = Vapor pressures of crystalline and liquid phases, static method with capacitance diaphragm gauge; type: physicochemical
Description: A previously described and tested static apparatus was used to measure the vapor pressures of the condensed phases (both crystalline and liquid) of the five compounds studied. This installation employs MKS capacitance diaphragm absolute gauges, operating at self-regulated constant temperatures. Our lab is equipped with three pressure gauges. Gauge I, a Baratron 631A01TBEH (MKS instruments, Andover, MA, USA) (Tgauge = 423 K), measures pressures in the range of 0.5 to 1.3 × 10^2 Pa and operates within a temperature range of 253 to 413 K. Gauge II, the instrument used in this study, is a Baratron 631A11TBFP (MKS instruments, Andover, MA, USA) (Tgauge = 473 K), capable of measuring pressures from 0.5 to 1.3 × 10^3 Pa within a temperature range of 253 to 433 K and gauge III, a Baratron 631D02T8FP (MKS instruments, Andover, MA, USA) (Tgauge = 473 K), designed to measure pressures between 0.5 Pa and 2.6 × 10^2 Pa, also within a temperature range of 253 to 433 K. The temperatures of the samples were measured using a Pt100 platinum resistance thermometer, calibrated by comparison with a standard platinum resistance thermometer (SPRT: Tinsley Precision Instruments Ltd, London, England). To prevent vapor condensation, the tubing connecting the cell containing the condensed sample to the pressure gauge is maintained at a temperature higher than that of the sample but lower than that of the gauge. The uncertainty in temperature measurements is estimated to be u(T/K) = ±0.01, and the expanded uncertainties (0.95 confidence level, k = 2) in pressure measurements are given by the expression U(p/Pa) = 0.1 + 0.0050 (p/Pa) for the gauge used. Samples were thoroughly degassed before starting the vapor pressure measurements, ensuring consistent readings at specific temperatures and eliminating any residual volatile substances, including water.

[2] = Equilibrium solubility in water, saturation shake-flask method with UV-vis; details: 25 °C, thermodynamic from solid
Procedure: (§1) The concentration was measured by absorbances at 260 nm for 4-chlorobenzaldehyde, 263 nm for 4-bromobenzaldehyde and 2,4-dichlorobenzaldehyde, 297 nm for 2,6-dichlorobenzaldehyde, and 306 nm for 2,3-dichlorobenzaldehyde, using a Cary-60 UV–vis (Agilent) spectrophotometer. X-ray diffraction (XRD) and differential scanning calorimetry of residual solids were used to identify the eventual phase transformations. The purified samples of each compound studied were used for all experimental determinations, including the solubility measurements. After reaching the equilibrium, the residual solid was dried and analyzed using both DSC and XRD. The melting properties obtained from DSC were compared with those of the original purified sample, following the same procedure for the XRD analysis. […] As an example, the supporting information includes two thermograms and two XRD patterns for 2,4-dichlorobenzaldehyde (Figures S1 and S2). […] Equation (4) was derived from Equation (5), which is widely applicable to the solubility of solids.(4) ΔhydrGm°/kJ·mol^−1=9.17−5.71·log10(Scr/mol·m^−3)−ΔcrgGm°/kJ·mol^−1 (5) S=p^°/RTexpΔcrgGm°+ΔhydrGm°/−RT
(§2) An excess amount of each compound was added to a known volume of water in triplicate. […] After stirring, the solid phase was allowed to settle for 2 h. The pH of the saturated solutions was measured using a Mettler Toledo (Greifensee, Switzerland) FiveEasy F20 pH Meter calibrated with standard aqueous solutions (pH 7.00 and 4.01 or 10.1). Those solutions were then filtered through a 0.22 μm syringe hydrophilic filter (13 mm, PTFE, Labfil, Zhejiang, China) and diluted to the required concentration. The concentration of the compounds, expressed in molarity, was measured by absorbances using a Cary-60 UV–vis spectrophotometer (Agilent Technologies, Santa Clara, CA, USA) at 298.15 K (single cell Peltier accessory, ±0.15 K). The results reported in Table 6 are averaged from at least three replicates. Calibration was performed using solutions of known concentrations of each substance in water. These solutions were prepared by adding a precise mass of the substance and a specific volume of the solvent to a flask, then mixing until the substance was fully dissolved. The absorbance of these solutions was measured, and calibration curves were created.

[3] = pH of the saturated aqueous solutions; type: physicochemical; details: saturated aqueous solution of the solubility experiment
Procedure: as §1, §2

vapor pressure p ([1]; crystalline phase, T = 284.21 K): 0.49 Pa
vapor pressure p ([1]; crystalline phase, T = 286.16 K): 0.63 Pa
vapor pressure p ([1]; crystalline phase, T = 288.13 K): 0.78 Pa
vapor pressure p ([1]; crystalline phase, T = 290.09 K): 0.99 Pa
vapor pressure p ([1]; crystalline phase, T = 292.06 K): 1.26 Pa
vapor pressure p ([1]; crystalline phase, T = 294.04 K): 1.58 Pa
vapor pressure p ([1]; crystalline phase, T = 296.22 K): 2.00 Pa
vapor pressure p ([1]; crystalline phase, T = 298.17 K): 2.47 Pa
vapor pressure p ([1]; crystalline phase, T = 299.97 K): 3.02 Pa
vapor pressure p ([1]; crystalline phase, T = 302.18 K): 3.78 Pa
vapor pressure p ([1]; crystalline phase, T = 303.89 K): 4.58 Pa
vapor pressure p ([1]; crystalline phase, T = 305.78 K): 5.63 Pa
vapor pressure p ([1]; crystalline phase, T = 308.08 K): 7.12 Pa
vapor pressure p ([1]; crystalline phase, T = 309.86 K): 8.45 Pa
vapor pressure p ([1]; crystalline phase, T = 312.03 K): 10.58 Pa
vapor pressure p ([1]; crystalline phase, T = 313.92 K): 12.78 Pa
vapor pressure p ([1]; crystalline phase, T = 315.60 K): 15.22 Pa
vapor pressure p ([1]; crystalline phase, T = 317.96 K): 18.67 Pa
vapor pressure p ([1]; crystalline phase, T = 319.59 K): 21.97 Pa
vapor pressure p ([1]; crystalline phase, T = 321.86 K): 27.35 Pa
vapor pressure p ([1]; crystalline phase, T = 323.56 K): 31.92 Pa
vapor pressure p ([1]; crystalline phase, T = 325.70 K): 39.35 Pa
vapor pressure p ([1]; crystalline phase, T = 327.48 K): 45.52 Pa
vapor pressure p ([1]; crystalline phase, T = 329.63 K): 56.32 Pa
vapor pressure p ([1]; crystalline phase, T = 331.62 K): 65.87 Pa
vapor pressure p ([1]; liquid phase, T = 335.54 K): 91.33 Pa
vapor pressure p ([1]; liquid phase, T = 337.55 K): 103.4 Pa
vapor pressure p ([1]; liquid phase, T = 339.54 K): 117.4 Pa
vapor pressure p ([1]; liquid phase, T = 341.49 K): 133.6 Pa
vapor pressure p ([1]; liquid phase, T = 343.48 K): 150.6 Pa
vapor pressure p ([1]; liquid phase, T = 345.45 K): 169.9 Pa
vapor pressure p ([1]; liquid phase, T = 347.44 K): 189.1 Pa
vapor pressure p ([1]; liquid phase, T = 349.41 K): 214.0 Pa
vapor pressure p ([1]; liquid phase, T = 351.50 K): 240.6 Pa
vapor pressure p ([1]; liquid phase, T = 353.48 K): 267.2 Pa
vapor pressure p ([1]; liquid phase, T = 355.36 K): 297.6 Pa
vapor pressure p ([1]; liquid phase, T = 357.43 K): 335.9 Pa
vapor pressure p ([1]; liquid phase, T = 359.33 K): 371.6 Pa
vapor pressure p ([1]; liquid phase, T = 361.39 K): 419.6 Pa
vapor pressure p ([1]; liquid phase, T = 363.27 K): 461.9 Pa
vapor pressure p ([1]; liquid phase, T = 365.34 K): 516.4 Pa
vapor pressure p ([1]; liquid phase, T = 367.35 K): 569.4 Pa
vapor pressure p ([1]; liquid phase, T = 369.27 K): 630.4 Pa
vapor pressure p ([1]; liquid phase, T = 371.17 K): 695.2 Pa
vapor pressure p ([1]; liquid phase, T = 373.23 K): 767.3 Pa
vapor pressure p ([1]; liquid phase, T = 375.13 K): 843.4 Pa
vapor pressure p ([1]; liquid phase, T = 377.17 K): 930.5 Pa
vapor pressure p ([1]; liquid phase, T = 379.07 K): 1011 Pa
vapor pressure p ([1]; liquid phase, T = 381.03 K): 1104 Pa
vapor pressure p ([1]; supercooled liquid, T = 327.59 K): 54.84 ^d Pa
vapor pressure p ([1]; supercooled liquid, T = 329.66 K): 62.05 ^d Pa
vapor pressure p ([1]; supercooled liquid, T = 331.60 K): 71.02 ^d Pa
vapor pressure p ([1]; supercooled liquid, T = 333.65 K): 80.84 ^d Pa
solubility at 72 h [2]: 853 µM (≈ 149 µg/mL)
pH of the saturated solution [3]: 6.43
SMILES: O=Cc1cccc(Cl)c1Cl [2,3-Dichlorobenzaldehyde]
